Experimental data as given in US11884676B2, “Substituted pyrimido[1,2-b]pyridazines as positive allosteric modulators of the muscarinic acetylcholine receptor M4” (Vanderbilt University, priority 2020, dated 2024).
pEC50: −log10 of the molar value.

Columns and labels:
[1] = human, in vivo; cited from earlier work
[2] = cited from earlier work
[3] = Alzheimer's disease patients; Bodick et al. 1997; cited from earlier work
Human M4 = target: T1, Human M4 (Homo sapiens, UniProt P08173); experiment: mAChR M4 cell-based functional assay (calcium flux, PAM mode); settings: hM4-Gqi5 CHO-K1 cells
T1 construct: expressed in transfected cells
T1 sequence (P08173 1-479): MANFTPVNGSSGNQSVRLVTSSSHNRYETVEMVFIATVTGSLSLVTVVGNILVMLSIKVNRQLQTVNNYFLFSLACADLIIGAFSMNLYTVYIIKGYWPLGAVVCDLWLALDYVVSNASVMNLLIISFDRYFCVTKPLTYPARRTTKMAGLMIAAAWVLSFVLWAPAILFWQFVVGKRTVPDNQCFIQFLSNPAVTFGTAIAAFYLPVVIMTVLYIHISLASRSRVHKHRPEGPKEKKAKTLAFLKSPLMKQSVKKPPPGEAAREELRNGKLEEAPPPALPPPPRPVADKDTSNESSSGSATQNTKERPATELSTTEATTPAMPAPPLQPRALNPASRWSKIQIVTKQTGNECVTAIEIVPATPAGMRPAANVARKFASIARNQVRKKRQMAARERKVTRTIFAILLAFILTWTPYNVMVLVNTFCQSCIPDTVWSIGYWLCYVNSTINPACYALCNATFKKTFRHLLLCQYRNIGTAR
How it was run: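 CHO-K1 cells stably co-expressing human M4 and chimeric Gqi5, Fluo-4 loaded; compound added first (11-point, 1:3 CRC), then EC20 acetylcholine at 144 s and EC80 at 230 s. PAM activity read on FDSS as concentration-dependent increase of EC20 ACh calcium response; EC50 and Emax from four-parameter logistic fit.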

For Nc1c2c(nc3ccccc13)CCCC2 [tacrine], the “elevated liver transaminases observed in patients” value [1] is given as “about 30 % of patients”.
For CCCCCCOc1nsnc1C1=CCCN(C)C1 [xanomeline], the “activity in animal models with similar profiles to known antipsychotic drugs” value ([2]; Bymaster et al., Shannon et al.) is listed as “active”, the catalepsy ([2]; animal models) is listed as “without causing catalepsy” and the “psychotic behavioral symptoms such as delusions, suspiciousness, vocal outbursts, and hallucinations” value [3] is listed as “reduce psychotic behavioral symptoms”.
[2H]C1([2H])Oc2ccc(OC3CCN(c4nn5c(=O)c(Cl)c(C)nc5cc4C)CC3)cc2OC1([2H])[2H] [Compound 17, 3-Chloro-7-(4-((2,3-dihydrobenzo[b][1,4]dioxin-6-yl-2,2,3,3-d4)oxy)piperidin-1-yl)-2,8-dimethyl-4H-pyrimido[1,2-b]pyridazin-4-one] showed an Emax at 30 µM (Human M4; CHO-K1, % ACh maximum at 30 μM) of 91% and a pEC50 (Human M4; concentration-dependent increase in the EC20 acetylcholine response) of 7.92.
